Laboratory results reported in US10443054B2, “Methods for identifying and treating invasive/metastatic breast cancers” (Massachusetts Institute of Technology, priority 2016, dated 2019).

How the values were obtained:
MDA-MB-231 cells = experiment: Inverted invasion assay through matrigel towards EGF; conditions: nuclei of invading cells above 40 μm
LM2 cells = experiment: Extravasation (experimental lung) metastasis assay, tail vein injection; format: in vivo, mice; conditions: LM2 cells stably expressing shRNA injected via tail vein, 28 days; vs Ctrl-shRNA
Procedure: For the experimental lung metastasis assay, 5×10^4 cells in 100 μl of Hank's Balanced Salt Solution were injected into the lateral tail vein of 6- to 8-week-old female NOD/SCID/IL2RV-null mice. The mice were sacrificed 28 days post-injection and lungs were inflated with 3.8% formaldehyde imaged with a fluorescence microscope and subsequently fixed overnight with 3.8% formaldehyde. ZsGreen-positive foci were counted in the left pulmonary lobe using ImageJ and counts were manually curated as needed.

## Cc1ccc(NC(=O)c2ccc(CN3CCN(C)CC3)cc2)cc1Nc1nccc(-c2cccnc2)n1 [ST1571, STI-571]
MDA-MB-231 cells; MDA-MB-231, Dasatinib 10 nM, STI571 10 μM, 72 hours vs DMSO
  breast cancer cell invasiveness towards EGF: impaired

## Lpd-shRNA2: shRNA targeting human Lpd, TTCCCATACTTTGCAATGCGG
LM2 cells
  number of ZsGreen-positive metastatic foci in the left pulmonary lobe: not significant

## CNC(=O)[C@H](Cc1c[nH]c2ccccc12)NC(=O)[C@@H](CC(=O)NO)CC(C)C [MMP inhibitor, GM6001]
MDA-MB-231 cells; MDA-MB-231 expressing GFP-Lpd, 10 μM GM6001 vs DMSO
  invasion of Lpd overexpressing cells: reduced invasion
MDA-MB-231 cells; MDA-MB-231 expressing GFP, 10 μM GM6001 vs DMSO
  invasion of GFP expressing control cells: reduced invasion
